Where two headings read alike, the source gives them in different places.
Columns and labels:
[1] = Plasma protein binding by equilibrium dialysis; format: in vitro ADME; conditions: NIH-III mouse plasma, 100 µM, 37°C, 6 h
Protocol: TABLE 11: Protein binding of SN30000, M14 and M18 at the indicated concentrations in NIH-III mouse plasma, measured by equilibrium dialysisa.
(µM) Percent Protein Bound (Mean ± SD)b […]
a Protein binding was evaluated by equilibrium dialysis using a high throughput plate with 12-14KDa dialysis membrane (HTDialysis, Gales Ferry, CT) as described by Banker et al., 2003, with modification. Briefly, 100 µL samples of plasma containing SN30000 or metabolites (M14 and M18) were dialysed against 100 µL PBS (pH 7.4) in an incubator (Innova-42, New Brunswick Scientific, US ) at 37°C with shaking at 80 rpm for 6 h. To achieve matrix match, 10 µL of blank plasma was added to 90 µL of the PBS sample and 90 µL of PBS was added to 10 µL of the plasma sample. Proteins were precipitated with 3 vol of ice-cold MeCN, the centrifuged supernatants were mixed with 2 vol 45 mM ammonium formate buffer pH 4.5, and 50 µL samples were analysed by HPLC with absorbance […]
bValues are mean and SD for triplicate samples.

[2] = Plasma, liver and brain PK after i.p. dosing with M14; format: in vivo; conditions: i.p. M14 135 mg/kg; for Cmax / half-life: NIH-III nude, mouse, in vivo, ip, 135 mg/kg; for Cmax: read-out: Cmax; for half-life: read-out: Terminal T1/2
Protocol: Concentration-time data were analyzed by non-compartmental analysis using Phoenix WinNonlin (ver 6.4, Build 6.4.0768 Pharsight, United States); all AUC values were extrapolated to infinity using the linear trapezoidal rule. A compartmental model for plasma PK after dosing with SN30000 or M14 was fitted using Phoenix NLME v1.3 with random effects on the metabolite volumes of distribution, and temperature effects based on the observed body temperature at the last measurement time. Temperature effects were added or removed until there was no significant change in the log likelihood. Model fits were further assessed by visual inspection of the residuals and predicted PK.

[3] = Stability in mouse plasma (QC samples); format: physicochemical
Excerpt: using octa-deuterated internal standards of SN30000, M13 and M14 synthesised as previously reported (Wang et al., 2012). Intra- and inter-day precision (expressed as relative standard deviation (RSD) and accuracy (expressed as percentage of the nominal value) were deter mined by analy sis of replicates (n=6) of low and high quality control (QC) samples on three different days. The lower limit of quantitation (LLOQ) was defined as the lowest concentration providing RSD and accuracy < 20%. Recovery from plasma and liver ho mogenates was tested at the three QC levels. The recoveries were evaluated by comparing extracted samples with blank extracted solutions spiked with analytes of the same amount.
Matrix effects, defined as the change in response due to the presence of other substances in the samples, were evaluated by comparing the analytes diluted into the blank plasma or liver extracted solution with that of the same stock solutions diluted in water. Three different concentration levels (low, medium and high QC) were evaluated by analysing three samples at each level. Accuracy , precision, recovery and matrix effects were all acceptable over the concentration ranges evaluated for plas ma (Supplementary Table 1) and for liver homogenates (Supplementary Table 2).
Stability of the analytes in mouse plasma (Supplementary Table 3) or liver homogenate (Supplementary Table 4) was confirmed during holding of QC samples on ice for up to 2 h under nor mal laboratory lighting, although there was a trend towards loss of SN30000 in plasma samples held in clear microcentrifuge tubes which may reflect the known photosensitivity of the compound (Gu et al., 2014). This loss was reduced by use of red microcentrifuge tubes, and eliminated by black tubes. Stability in both matrices was also confir med for one month storage at -80°C and for three freeze-thaw cycles, while MeOH-deproteinised samples w ere stable for 12 h at 4°C in the autosampler (Supplementary Tables

[4] = plasma deproteinised in 3 vol MeOH, 12 h autosampler at 4°C, nominal SN30000 0.5, M14 0.25, M13 0.1 µM
[5] = plasma deproteinised in 3 vol MeOH, 12 h autosampler at 4°C, nominal SN30000 5, M14 2.5, M13 1 µM
[6] = plasma deproteinised in 3 vol MeOH, 12 h autosampler at 4°C, nominal SN30000 50, M14 25, M13 10 µM
[7] = plasma, 1 month at -80°C, nominal SN30000 0.5, M14 0.25, M13 0.1 µM
[8] = plasma, 1 month at -80°C, nominal SN30000 5, M14 2.5, M13 1 µM
[9] = plasma, 1 month at -80°C, nominal SN30000 50, M14 25, M13 10 µM
[10] = plasma, 1 h on ice, black vial, nominal SN30000 0.5, M14 0.25, M13 0.1 µM
[11] = plasma, 1 h on ice, black vial, nominal SN30000 5, M14 2.5, M13 1 µM
[12] = plasma, 1 h on ice, black vial, nominal SN30000 50, M14 25, M13 10 µM
[13] = plasma, 1 h on ice, clear vial, nominal SN30000 0.5, M14 0.25, M13 0.1 µM
[14] = plasma, 1 h on ice, clear vial, nominal SN30000 5, M14 2.5, M13 1 µM
[15] = plasma, 1 h on ice, clear vial, nominal SN30000 50, M14 25, M13 10 µM
[16] = plasma, 1 h on ice, red vial, nominal SN30000 0.5, M14 0.25, M13 0.1 µM
[17] = plasma, 1 h on ice, red vial, nominal SN30000 5, M14 2.5, M13 1 µM
[18] = plasma, 1 h on ice, red vial, nominal SN30000 50, M14 25, M13 10 µM
[19] = plasma, 2 h on ice, black vial, nominal SN30000 0.5, M14 0.25, M13 0.1 µM
[20] = plasma, 2 h on ice, black vial, nominal SN30000 5, M14 2.5, M13 1 µM
[21] = plasma, 2 h on ice, black vial, nominal SN30000 50, M14 25, M13 10 µM
[22] = plasma, 2 h on ice, clear vial, nominal SN30000 0.5, M14 0.25, M13 0.1 µM
[23] = plasma, 2 h on ice, clear vial, nominal SN30000 5, M14 2.5, M13 1 µM
[24] = plasma, 2 h on ice, clear vial, nominal SN30000 50, M14 25, M13 10 µM
[25] = plasma, 2 h on ice, red vial, nominal SN30000 0.5, M14 0.25, M13 0.1 µM
[26] = plasma, 2 h on ice, red vial, nominal SN30000 5, M14 2.5, M13 1 µM
[27] = plasma, 2 h on ice, red vial, nominal SN30000 50, M14 25, M13 10 µM
[28] = plasma, three freeze-thaw cycles, nominal SN30000 0.5, M14 0.25, M13 0.1 µM
[29] = plasma, three freeze-thaw cycles, nominal SN30000 5, M14 2.5, M13 1 µM
[30] = plasma, three freeze-thaw cycles, nominal SN30000 50, M14 25, M13 10 µM

Q: Which results are given for `[O-][n+]1nc(CCCN2CCOCC2)nc2cc3c(cc21)CCC3` [M14]?
A: Percent Protein Bound (Mean ± SD) [1]: 65.81 ± 0.02%; Cmax ([2]; brain): 260 ± 29 µM; half-life ([2]; brain): 20.1 min; Cmax ([2]; liver): 319 ± 46.1 µM; half-life ([2]; liver): 25.1 min; Cmax ([2]; plasma): 95.6 ± 9.8 µM; half-life ([2]; plasma): 30.8 min; AUC ([2]; brain): 108.3 µmol·h/kg; AUC ([2]; liver): 131.1 µmol·h/kg; AUC ([2]; plasma): 36.6 µmol·h/kg; Bias [3, 4]: -3.45%; Measured conc [3, 4]: 0.24 µM; Bias [3, 5]: -1.00%; Measured conc [3, 5]: 2.48 µM; Bias [3, 6]: 5.16%; Measured conc [3, 6]: 26.29 µM; Bias [3, 7]: 1.83%; Measured conc [3, 7]: 0.23 µM; Bias [3, 8]: 1.63%; Measured conc [3, 8]: 2.42 µM; Bias [3, 9]: 1.59%; Measured conc [3, 9]: 26.65 µM; Bias [3, 10]: -6.07%; Measured conc [3, 10]: 0.23 µM; Bias [3, 11]: -9.84%; Measured conc [3, 11]: 2.25 µM; Bias [3, 12]: 3.20%; Measured conc [3, 12]: 25.80 µM; Bias [3, 13]: -6.07%; Measured conc [3, 13]: 0.23 µM; Bias [3, 14]: -2.06%; Measured conc [3, 14]: 2.45 µM; Bias [3, 15]: -2.50%; Measured conc [3, 15]: 24.37 µM; Bias [3, 16]: -3.25%; Measured conc [3, 16]: 0.24 µM; Bias [3, 17]: -4.29%; Measured conc [3, 17]: 2.39 µM; Bias [3, 18]: 0.26%; Measured conc [3, 18]: 25.07 µM; Bias [3, 19]: -2.23%; Measured conc [3, 19]: 0.24 µM; Bias [3, 20]: -2.62%; Measured conc [3, 20]: 2.43 µM; Bias [3, 21]: -2.33%; Measured conc [3, 21]: 24.42 µM; Bias [3, 22]: -5.90%; Measured conc [3, 22]: 0.24 µM; Bias [3, 23]: 0.51%; Measured conc [3, 23]: 2.51 µM; Bias [3, 24]: -2.43%; Measured conc [3, 24]: 24.39 µM; Bias [3, 25]: -3.27%; Measured conc [3, 25]: 0.24 µM; Bias [3, 26]: -0.72%; Measured conc [3, 26]: 2.48 µM; Bias [3, 27]: 0.70%; Measured conc [3, 27]: 25.17 µM; Bias [3, 28]: -4.07%; Measured conc [3, 28]: 0.24 µM; Bias [3, 29]: -3.19%; Measured conc [3, 29]: 2.42 µM; Bias [3, 30]: 3.92%; Measured conc [3, 30]: 25.98 µM

From article PMC5554537 (Frontiers in Pharmacology, 2017)
